{"source": "patent US20110269699A1", "about": "“CANCER THERAPY” (priority 2008, published 2011)", "key": {"[1]": {"tested_on": "226Eμ-myc/Bcl-2 lymphomas", "assay": "Cell cycle analysis of Eμ-myc/Bcl-2 cells treated with HDACi", "type": "cell-based, mouse", "conditions": "226/Bcl-2", "description": "(§1) Next, the cell cycle profiles of Eμ-myc/Bcl-2 lymphomas treated with oxamflatin and romidepsin over 3 days were assessed.\n(§2) […] Viability of cells as measured by trypan blue exclusion assay, propidium iodide uptake, Annexin V staining, cell cycle analysis, or tetramethylrhodamine ethyl ester staining were done as described (Lindemann et al., Proc. Nat. Acad. Sci. USA 104:8071-8078, 2007)."}, "[2]": {"tested_on": "4242Eμ-myc/Bcl-2 lymphomas", "assay": "Cell cycle analysis of Eμ-myc/Bcl-2 cells treated with HDACi", "type": "cell-based, mouse", "conditions": "4242/Bcl-2", "description": "as §1, §2"}, "Eμ-myc lymphomas": {"tested_on": "Eμ-myc lymphomas", "assay": "In vitro cell death analysis (propidium iodide staining, loss of MOMP)", "type": "cell-based, mouse", "description": "Three different primary Eμ-myc lymphomas overexpressing Bcl-2 and control vector-transduced Eμ-myc cells were tested for sensitivity to the histone deacetylase inhibitors (HDACi) oxamflatin and romidepsin.\nThe primary function of prosurvival Bcl-2 proteins is to inhibit the activity of Bak and Bax proteins and thereby protect the mitochondrial membrane from damage (Cory et al., Nat. Rev. Cancer 2:647-656, 2002). To determine if the induction of apoptosis mediated by romidepsin in 4242Eμ-myc/Bcl-2 and 229Eμ-myc/Bcl-2 lymphomas was via perturbation of the mitochondrial membrane or through some other mechanism, HDACi-induced mitochondrial outer membrane permeabilization (MOMP) was quantitated by staining with tetramethylrhodamine ethyl ester (Molecular Probes).\nas §2"}, "[3]": {"tested_on": "102Eμ-myc/Bcl-2 lymphomas", "assay": "In vitro cell death analysis, time course", "type": "cell-based, mouse", "conditions": "3.0 nmol/L; up to 72 h"}, "4242Eμ-myc lymphomas [4]": {"tested_on": "4242Eμ-myc lymphomas", "assay": "In vitro cell death analysis (parental control of the Bcl-XL experiment)", "type": "cell-based, mouse", "description": "To determine if increased expression of Bcl-XL could confer resistance to romidepsin, 4242Eμ-myc/Bcl-XL lymphomas were produced and tested for sensitivity to HDACi.\nEμ-myc lymphoma cells (5×10^5/mL) were incubated in the presence of the indicated compounds for 20 h in 1 mL cell culture medium in 24-well plates (Greiner Bio-One). Viability of cells as measured by trypan blue exclusion assay, propidium iodide uptake, Annexin V staining, cell cycle analysis, or tetramethylrhodamine ethyl ester staining were done as described (Lindemann et al., Proc. Nat. Acad. Sci. USA 104:8071-8078, 2007)."}, "102Eμmyc lymphomas": {"tested_on": "102Eμmyc lymphomas", "assay": "In vivo therapy assay (Kaplan-Meier survival)", "parameters": "species or system C57BL/6 mice", "conditions": "5.6 mg/kg i.v. every 4 d, four doses; vehicle 14 d; P<0.0001", "description": "(§3) FIG. 4. […] C57BL/6 mice (10 mice per group) bearing (FIG. 4A) 4242Eμ-myc, (FIG. 4B) 229Eμ-myc, (FIG. 4C) 226Eμ-myc, (FIG. 4D) 102Eμ-myc, (FIG. 4E) 4242Eμ-myc/Bcl-2, (FIG. 4F) 229Eμmyc/Bcl-2, (FIG. 4G) 226Eμ-myc/Bcl-2, and (FIG. 4H) 102Eμ-myc/Bcl-2, lymphomas were treated with romidepsin or vehicle. Therapy commenced after WBC counts reached ≧13×10^3/μL. Therapy consisted of either 5.6 mg/kg romidepsin (injected i.v. every 4 d for a total of four doses) or vehicle.\n(§4) For therapy experiments, Eμ-myc lymphomas were transplanted into C57BL/6 mice and treatment with romidepsin or vehicle commenced when WBC counts in the peripheral blood reached a pathologic threshold (>13×10^3/μL).\n(§5) For in vivo apoptosis assays, C57BL/6 mice were injected with Eμ-myc lymphomas (5×10^5 cells per animal) and after 10 to 15 days on which lymph nodes became well-palpable romidepsin (5.6 mg/kg) was administered i.v. After the indicated time points, mice were sacrificed and cells were harvested from brachial lymph nodes for fluorescence-activated cell sorting-based assays to measure apoptotic signaling (Lindemann et al., Proc. Nat. Acad. Sci. USA 104:8071-8078, 2007). To assess therapeutic efficacy of romidepsin, C57BL/6 mice were injected with Eμ-myc lymphomas of the indicated genotypes i.v. (5×10^5 cells per animal). Peripheral WBC counts were then monitored until they exceeded 13×10^3/μL (Sysmex Hematology Analyzer K-1000) and romidepsin was administered at 5.6 mg/kg i.v. once every 4 days for a total of four injections. […] Mice in the control cohort received the corresponding amount of vehicle. Cohorts consisted of 8 to 11 mice each, 2 to 3 independently derived lymphomas per genotype. Peripheral WBC counts and body weights were recorded weekly. On signs of major distress or when lymphomas were relapsing as indicated by enlarged brachioaxial lymph nodes, mice were euthanized and a necropsy was done. For analysis of therapeutic efficacy, tumor-induced mortality “events” were recorded. Kaplan-Meier analysis was done and comparisons made using the log-rank (Mantel-Cox) test (MedCalc software version 8.0.2.0)."}, "226Eμ-myc lymphomas": {"tested_on": "226Eμ-myc lymphomas", "assay": "In vivo therapy assay (Kaplan-Meier survival)", "parameters": "species or system C57BL/6 mice", "conditions": "5.6 mg/kg i.v. every 4 d, four doses; vehicle 15 d; P<0.0001", "description": "as §3, §4, §5"}, "[5]": {"tested_on": "226Eμ-myc/Bcl-2 lymphomas", "assay": "In vivo therapy assay (Kaplan-Meier survival)", "parameters": "species or system C57BL/6 mice", "conditions": "5.6 mg/kg i.v. every 4 d, four doses", "description": "as §3, §4, §5"}, "229Eμ-myc lymphomas": {"tested_on": "229Eμ-myc lymphomas", "assay": "In vivo therapy assay (Kaplan-Meier survival)", "parameters": "species or system C57BL/6 mice", "conditions": "5.6 mg/kg i.v. every 4 d, four doses; vehicle 20 days; P<0.0001", "description": "as §3, §4, §5"}, "4242Eμ-myc lymphomas [6]": {"tested_on": "4242Eμ-myc lymphomas", "assay": "In vivo therapy assay (Kaplan-Meier survival)", "parameters": "species or system C57BL/6 mice", "conditions": "5.6 mg/kg i.v. every 4 d, four doses; vehicle 19 d; P<0.0003", "description": "as §3, §4, §5"}, "[7]": {"tested_on": "4242Eμ-myc/Bcl-2 lymphomas", "assay": "In vivo therapy assay (Kaplan-Meier survival)", "parameters": "species or system C57BL/6 mice", "conditions": "5.6 mg/kg i.v. every 4 d, four doses", "description": "as §3, §4, §5"}}, "note": "“And” between values parts separate entries of the source, which are not always exact repeats. Equal entries are not always repeated."}
{"substance": "(1S,4S,10S,16E,21R)-7-[(2Z)-ethylidene]-4,21-diisopropyl-2-oxa-12,13-dithia-5,8,20,23-tetraazabicyclo[8.7.6]tricos-16-ene-3,6,9,19,22-pentanone [Romidepsin]", "values": [{"measurement": "% G1", "setting": "[1]; 24 hr", "value": 48.6, "unit": "%"}, {"measurement": "% G2/M", "setting": "[1]; 24 hr", "value": 26.6, "unit": "%"}, {"measurement": "% S phase", "setting": "[1]; 24 hr", "value": 16.4, "unit": "%"}, {"measurement": "% subG1", "setting": "[1]; 24 hr", "value": 3.7, "unit": "%"}, {"measurement": "% G1", "setting": "[1]; 48 hr", "value": 52.3, "unit": "%"}, {"measurement": "% G2/M", "setting": "[1]; 48 hr", "value": 27.1, "unit": "%"}, {"measurement": "% S phase", "setting": "[1]; 48 hr", "value": 13.5, "unit": "%"}, {"measurement": "% subG1", "setting": "[1]; 48 hr", "value": 3.7, "unit": "%"}, {"measurement": "% G1", "setting": "[1]; 72 hr", "value": 78.3, "unit": "%"}, {"measurement": "% G2/M", "setting": "[1]; 72 hr", "value": 8.7, "unit": "%"}, {"measurement": "% S phase", "setting": "[1]; 72 hr", "value": 2.5, "unit": "%"}, {"measurement": "% subG1", "setting": "[1]; 72 hr", "value": 7.8, "unit": "%"}, {"measurement": "% G1", "setting": "[2]; 24 hr", "value": 66.3, "unit": "%"}, {"measurement": "% G2/M", "setting": "[2]; 24 hr", "value": 11.4, "unit": "%"}, {"measurement": "% S phase", "setting": "[2]; 24 hr", "value": 2.1, "unit": "%"}, {"measurement": "% subG1", "setting": "[2]; 24 hr", "value": 19.3, "unit": "%"}, {"measurement": "% G1", "setting": "[2]; 48 hr", "value": 53.2, "unit": "%"}, {"measurement": "% G2/M", "setting": "[2]; 48 hr", "value": 8.5, "unit": "%"}, {"measurement": "% S phase", "setting": "[2]; 48 hr", "value": 4.6, "unit": "%"}, {"measurement": "% subG1", "setting": "[2]; 48 hr", "value": 27.2, "unit": "%"}, {"measurement": "% G1", "setting": "[2]; 72 hr", "value": 34.8, "unit": "%"}, {"measurement": "% G2/M", "setting": "[2]; 72 hr", "value": 7.1, "unit": "%"}, {"measurement": "% S phase", "setting": "[2]; 72 hr", "value": 3.0, "unit": "%"}, {"measurement": "% subG1", "setting": "[2]; 72 hr", "value": 55.3, "unit": "%"}, {"measurement": "cell killing (outer cell membrane damage, loss of mitochondrial membrane potential)", "setting": "Eμ-myc lymphomas; 24-h dose-response assay", "value": "could effectively kill"}, {"measurement": "concentration of HDACi required to kill ˜70% of Eμ-myc lymphomas following 24-h treatment", "setting": "Eμ-myc lymphomas; 24-h treatment", "value": "3.0 nmol/L and 3 nmol/L"}, {"measurement": "cell killing in time course", "setting": "[3]", "value": "remained relatively insensitive"}, {"measurement": "plasma membrane integrity and mitochondrial function", "setting": "4242Eμ-myc lymphomas [4]; increasing concentrations over 24 h", "value": "dose-dependent loss of plasma membrane integrity and mitochondrial function"}, {"measurement": "cell cycle analysis: DNA fragmentation", "setting": "4242Eμ-myc lymphomas [4]; increasing doses", "value": "DNA fragmentation occurred"}, {"measurement": "cell killing in time course", "setting": "4242Eμ-myc lymphomas [4]; parental Eμ-myc lymphomas, within the first 24 h, 3 nmol/L romidepsin or 0.1 μmol/L oxamflatin", "value": "effectively killed"}, {"measurement": "median survival", "setting": "102Eμmyc lymphomas", "value": 22, "unit": "days"}, {"measurement": "median survival", "setting": "226Eμ-myc lymphomas", "value": 19.5, "unit": "days"}, {"measurement": "therapeutic benefit (survival)", "setting": "[5]", "value": "little or no therapeutic benefit"}, {"measurement": "median survival", "setting": "[5]; vehicle 16 d, P=0.86", "value": 16, "unit": "days"}, {"measurement": "median survival", "setting": "229Eμ-myc lymphomas", "value": 30, "unit": "days"}, {"measurement": "median survival", "setting": "4242Eμ-myc lymphomas [6]", "value": 28, "unit": "days"}, {"measurement": "survival of mice compared with vehicle-treated mice", "setting": "[7]", "value": "significantly extended the survival"}, {"measurement": "median survival", "setting": "[7]; vehicle 12 d, P<0.0001", "value": 22.5, "unit": "days"}]}
